From ChEMBL document CHEMBL1201862, “PubChem BioAssay data set” (2004)
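All cell lines were grown in 96-well plates and treated with compound for 48 hours. GI50: concentration for 50% inhibition of growth.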 Calls of active or inactive are those of the source. Cut-off read from the data, not from the text of the source: active = GI50 up to about 1.1 µM and inactive = higher. Where a SMILES comes first, the peptide text is derived from it. [ ]: non-standard residue; d: D form. Hiv = CC(C)[C@H](O)C(=O)O

Columns and labels:
Test in all cases: DTP human tumour cell line panel, 48 h
[1] = test system: A498
[2] = test system: HCT-116
[3] = test system: HT-29
[4] = test system: M14
[5] = test system: MDA-MB-231
[6] = test system: MDA-MB-435
[7] = test system: MOLT-4
[8] = test system: Malme-3M
[9] = test system: NCI-H226
[10] = test system: NCI-H522
[11] = test system: NCI/ADR-RES
[12] = test system: SF-268
[13] = test system: SF-295
[14] = test system: SNB-19
[15] = test system: SNB-75
[16] = test system: SR
[17] = test system: U-251
[18] = test system: UACC-257
[19] = test system: UO-31
[20] = test system: CCRF-CEM

Measured: GI50

CC(=O)C(C(=O)c1ccc(C)cc1)[C@H]1OC(C)(C)O[C@H]1[C@H]1COC(C)(C)O1 (stereo partly specified)
inactive: [1] 7.55 µM | [2] 2.25 µM | [3] 2.2 µM | [4] 6.9 µM | [5] 5.82 µM | [6] 2.24 µM | [7] 1.66 µM | [8] 6.92 µM | [9] 14.5 µM | [10] 2.34 µM | [11] 4.54 µM | [12] 2.81 µM | [13] 7.78 µM | [14] 9.95 µM | [15] 3.78 µM | [16] 1.42 µM | [17] 1.91 µM | [18] 5.31 µM | [19] 6.98 µM

COC(=O)[C@]1(c2cc3ccccc3[nH]2)CC2CNC1C1OC(C)(C)OC21 (stereo partly specified)
inactive: [20] > 100 µM | [2] > 100 µM | [3] > 100 µM | [4] > 100 µM | [5] 64.7 µM | [6] 84.5 µM | [7] 66.4 µM | [8] > 100 µM | [9] > 100 µM | [10] > 100 µM | [11] > 100 µM | [12] > 100 µM | [13] > 100 µM | [14] > 100 µM | [15] > 100 µM | [16] 47.9 µM | [17] > 100 µM | [18] > 100 µM | [19] > 100 µM

CCOC(=O)c1sc2[n+](c1C)C(=O)/C(=C/c1ccc([N+](=O)[O-])cc1)S2
inactive: [1] > 100 µM | [20] > 100 µM | [2] 20.8 µM | [3] 16.8 µM | [4] 31.6 µM | [5] 46.6 µM | [6] 18 µM | [7] 22.2 µM | [9] 28.3 µM | [11] 13.8 µM | [12] 12.9 µM | [13] 18.5 µM | [14] 45.2 µM | [15] 20.5 µM | [16] 24.3 µM | [17] 17.3 µM | [18] 28.1 µM | [19] 15 µM

CC(C)[C@@H]1OC(=O)[C@@H](C)NC(=O)[C@@H]2CCCN2C1=O (cyclo([Hiv]-Pro-[dA]))
inactive: [1] > 100 µM | [20] > 100 µM | [2] > 100 µM | [3] > 100 µM | [4] > 100 µM | [5] > 100 µM | [6] > 100 µM | [7] > 100 µM | [8] > 100 µM | [9] > 100 µM | [11] > 100 µM | [12] > 100 µM | [13] > 100 µM | [14] > 100 µM | [16] > 100 µM | [18] > 100 µM

Cc1ccc(NC(=O)c2cc(S(=O)(=O)Nc3n[nH]c(=O)n3-c3ccccc3)c(S)cc2Cl)cc1
inactive: [1] > 100 µM | [2] > 100 µM | [3] > 100 µM | [4] > 100 µM | [5] > 100 µM | [6] > 100 µM | [7] > 100 µM | [8] > 100 µM | [9] > 100 µM | [10] > 100 µM | [11] > 100 µM | [12] > 100 µM | [14] > 100 µM | [15] > 100 µM | [16] > 100 µM | [17] > 100 µM | [18] > 100 µM | [19] > 100 µM

COc1cc(C2S/C(=C/c3ccccc3)C(=O)N2c2cccc(Cl)c2)cc(OC)c1OC (stereo unspecified)
inactive: [1] 69.7 µM | [20] 25.6 µM | [2] 36.3 µM | [3] 44.9 µM | [4] 62.8 µM | [5] > 100 µM | [6] 22.2 µM | [7] 22 µM | [9] 93.5 µM | [10] 18.2 µM | [11] 34.5 µM | [12] 77.1 µM | [13] 33.7 µM | [14] 42.9 µM | [16] 19.4 µM | [17] 57.7 µM | [18] 23.6 µM | [19] 23.7 µM

CN(C)c1ncc(-c2c[nH]c3ccccc23)nc1-c1c[nH]c2ccccc12
inactive: [1] 2.14 µM | [2] 3.13 µM | [3] 2.19 µM | [4] 1.89 µM | [5] 2.07 µM | [6] 3.31 µM | [7] 3.47 µM | [11] 9.95 µM | [12] 10.6 µM | [13] 2.33 µM | [14] 4.12 µM | [15] 1.15 µM | [16] 3.24 µM | [17] 3.37 µM | [18] 1.9 µM | [19] 3.73 µM

Cc1ccc(Cc2n[nH]c(=O)n2-c2ccccc2)cc1
inactive: [1] 37.5 µM | [2] > 100 µM | [3] > 100 µM | [5] > 100 µM | [6] > 100 µM | [7] > 100 µM | [8] > 100 µM | [9] > 100 µM | [11] > 100 µM | [12] > 100 µM | [13] > 100 µM | [14] > 100 µM | [15] > 100 µM | [16] > 100 µM | [17] > 100 µM | [18] > 100 µM | [19] 86.7 µM

Clc1ncnc(Cl)c1Cl
inactive: [20] > 100 µM | [2] > 100 µM | [3] > 100 µM | [4] > 100 µM | [5] > 100 µM | [6] > 100 µM | [7] > 100 µM | [8] > 100 µM | [9] > 100 µM | [10] > 100 µM | [11] > 100 µM | [12] > 100 µM | [13] > 100 µM | [14] > 100 µM | [15] > 100 µM | [16] > 100 µM | [17] > 100 µM | [19] > 100 µM

O=C1c2cccc(O)c2C(=O)c2c(OC3OC(CO)C(O)C(O)C3O)cccc21 (stereo unspecified)
inactive: [1] > 100 µM | [2] 19.8 µM | [3] 33.3 µM | [4] 21.5 µM | [5] 21.3 µM | [6] 18.2 µM | [8] 6.12 µM | [9] > 100 µM | [10] 15.8 µM | [11] 17 µM | [12] 22.9 µM | [13] 48.5 µM | [14] 33.7 µM | [15] 24 µM | [16] 32.4 µM | [17] 25.2 µM | [18] 19.5 µM | [19] 35.2 µM

ClCCc1ccccc1CC1=NCCc2ccccc21
inactive: [1] 37.6 µM | [20] 39.9 µM | [2] 32.5 µM | [3] 17.4 µM | [4] 24.5 µM | [5] 38.1 µM | [6] 28.8 µM | [7] 26.9 µM | [9] 22.5 µM | [10] 16.7 µM | [11] 21.9 µM | [12] 29 µM | [13] 39.3 µM | [14] 18.1 µM | [15] 22 µM | [16] > 100 µM | [17] 31.8 µM | [18] 34 µM | [19] 14.4 µM
